Molecules are shown by their SMILES. Some results are limits rather than exact numbers.

One series concerns the target T1, mouse RAR beta receptor (Mus musculus, UniProt P22605).
T1 sequence (P22605 210-444 limits assumed): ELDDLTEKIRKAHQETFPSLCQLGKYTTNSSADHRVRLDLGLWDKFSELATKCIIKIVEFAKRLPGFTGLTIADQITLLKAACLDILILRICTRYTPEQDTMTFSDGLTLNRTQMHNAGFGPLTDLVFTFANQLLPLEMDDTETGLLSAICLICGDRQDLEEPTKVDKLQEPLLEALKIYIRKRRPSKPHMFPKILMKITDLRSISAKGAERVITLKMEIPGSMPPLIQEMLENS
Test: not given
The conditions noted are these: ratio of relative EC50s RARβ/RARα.
As to `O=C(O)c1ccc(NC(=O)c2cc(Cl)c(OC3CCCC3)c(OC3CCCC3)c2)cc1` [Compound 42, 4-[3-Chloro-4,5-bis(cyclopentyloxy)benzamido]benzoic acid], the β/α ratio stood at 32.

Take `CC(C)Oc1cc(C(=O)Nc2ccc(C(=O)O)c(F)c2)cc(Cl)c1OC(C)C` [Compound 43]: the β/α ratio came out at 34.

`CCOc1c(Cl)cc(C(=O)Nc2ccc(C(=O)O)c(C)c2)cc1OCC1CC1` [Compound 59]: the β/α ratio is on record as 58.

`CC(C)(C)Oc1cc(C(=O)Nc2ccc(C(=O)O)cc2)cc(Cl)c1OC(C)(C)C` [Compound 41, 4-(3,4-Di-tert-butoxy-5-chlorobenzamido)benzoic acid]: the β/α ratio amounted to 44.

Take `CCOc1cc(C(=O)Nc2ccc(C(=O)O)cc2)cc(Cl)c1OC(C)C` [Compound 52]: the β/α ratio is listed as 3.1.

As for `CCOc1c(Cl)cc(NC(=O)c2ccc(C(=O)O)cc2)cc1Cl` [Compound 26, 4-(3,5-Dichloro-4-ethoxyphenylcarbamoyl)benzoic acid], the β/α ratio is 12.

`COc1c(Cl)cc(C(=O)Nc2ccc(C(=O)O)cc2)cc1Cl` [Compound 61]: the β/α ratio is 318.

Regarding `CC(C)Oc1c(Cl)cc(C(=O)Nc2ccc(C(=O)O)cc2)cc1Cl` [Compound 14], the β/α ratio amounted to 205.

As for `O=C(O)c1ccc(NC(=O)c2cc(Cl)c(OC3CCC3)c(OC3CCC3)c2)cc1` [Compound 40], the β/α ratio worked out at 22.

As to `CCOc1c(Cl)cc(C(=O)Nc2ccc(C(=O)O)c(F)c2)cc1Cl` [Compound 17], the β/α ratio worked out at 80.

For `CCOc1c(Cl)cc(C(=O)Nc2ccc(C(=O)O)c(Cl)c2)cc1Cl` [Compound 20], the β/α ratio is 64.

Regarding `CCCCOc1c(Cl)cc(C(=O)Nc2ccc(C(=O)O)cc2)cc1Cl` [Compound 13], the β/α ratio came to 8.5.

Regarding `CCOc1cc(C(=O)Nc2ccc(C(=O)O)cc2)cc(OCC)c1OCC` [Compound 62], the β/α ratio stood at 174.

Tested on in another series: not listed separately
Description: Log D pH 7.4, octanol/buffer shake flask method.
Details: not given
`CC(C)(C)Oc1c(Cl)cc(C(=O)Nc2ccc(C(=O)O)cc2)cc1Cl` [Compound 16, 4-(4-(tert-Butoxy)-3,5-dichlorobenzamido)benzoic acid] had a logD of 2.6.

`CC(C)Oc1cc(C(=O)Nc2ccc(C(=O)O)c(F)c2)cc(Cl)c1OC(C)C` [Compound 43] yielded a logD of 2.

Regarding `Cc1cc(NC(=O)c2cc(Cl)c(OC(C)(C)C)c(OC(C)(C)C)c2)ccc1C(=O)O` [Compound 45], the logD stood at 2.9.

Tested on in another series: not listed separately
Description: Intrinsic clearance in liver microsomes. In kind it is in vitro ADME. To be noted: human microsomes, 37 °C, NADPH, 45 min; mean of 5. As for the experimental part: The reaction is terminated by the addition of methanol. Following centrifugation, the supernatant is analyzed on the LC-MS/MS. […] The data is the mean on 5 separate experiments.
The ln peak area ratio (compound peak area/internal standard peak area) is plotted against time and the gradient of the line determined.
(see Supplementary data file for details).
Compound `Cc1cc(NC(=O)c2cc(Cl)c(OC(C)(C)C)c(OC(C)(C)C)c2)ccc1C(=O)O` [Compound 45] returned an intrinsic clearance (microsomal CLint) of 28.7 µL/min/mg.

Still in this series, the particulars now being: liver microsomes; human microsomes, 37 °C, NADPH, 45 min; mean of 5.
`CC(C)(C)Oc1c(Cl)cc(C(=O)Nc2ccc(C(=O)O)cc2)cc1Cl` [Compound 16, 4-(4-(tert-Butoxy)-3,5-dichlorobenzamido)benzoic acid] returned a microsomal CLint of 16 µL/min/mg.

In turn, `CC(C)Oc1cc(C(=O)Nc2ccc(C(=O)O)c(F)c2)cc(Cl)c1OC(C)C` [Compound 43] returned a microsomal CLint of 6.9 µL/min/mg.

The series is the same for the next values; noted with them: liver microsomes; mouse microsomes, 37 °C, NADPH, 45 min; mean of 5.
The compound `CC(C)(C)Oc1c(Cl)cc(C(=O)Nc2ccc(C(=O)O)cc2)cc1Cl` [Compound 16, 4-(4-(tert-Butoxy)-3,5-dichlorobenzamido)benzoic acid] returned a microsomal CLint of 91 µL/min/mg.

`CC(C)Oc1cc(C(=O)Nc2ccc(C(=O)O)c(F)c2)cc(Cl)c1OC(C)C` [Compound 43] came in with a microsomal CLint of 18.8 µL/min/mg. This microsomal CLint lies about 4.8-fold lower than the previous one.

In turn, `CCOc1c(Cl)cc(C(=O)Nc2ccc(C(=O)O)c(C)c2)cc1OCC1CC1` [Compound 59] yielded a microsomal CLint of 42.3 µL/min/mg.

Still in this series, the particulars now being: mouse microsomes, 37 °C, NADPH, 45 min; mean of 5.
In turn, `Cc1cc(NC(=O)c2cc(Cl)c(OC(C)(C)C)c(OC(C)(C)C)c2)ccc1C(=O)O` [Compound 45] yielded a microsomal CLint of 36.2 µL/min/mg.

The next series addresses T2, mouse RAR gamma receptor (Mus musculus, UniProt P18911).
T2 sequence (P18911 185-419 limits assumed): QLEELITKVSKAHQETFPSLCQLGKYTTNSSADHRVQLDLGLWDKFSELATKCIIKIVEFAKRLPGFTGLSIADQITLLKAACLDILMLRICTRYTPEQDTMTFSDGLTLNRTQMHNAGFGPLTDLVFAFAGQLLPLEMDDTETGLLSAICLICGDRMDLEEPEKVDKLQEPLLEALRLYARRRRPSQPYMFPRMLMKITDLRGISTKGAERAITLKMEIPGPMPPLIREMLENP
Test: not given
To be noted: mouse; ratio of relative EC50s RARγ/RARα.
As for `O=C(O)c1ccc(NC(=O)c2cc(Cl)c(OC3CCCC3)c(OC3CCCC3)c2)cc1` [Compound 42, 4-[3-Chloro-4,5-bis(cyclopentyloxy)benzamido]benzoic acid], the γ/α ratio was 336.

Turning to `CC(C)Oc1cc(C(=O)Nc2ccc(C(=O)O)c(F)c2)cc(Cl)c1OC(C)C` [Compound 43], the γ/α ratio is 300.

Regarding `CCOc1c(Cl)cc(C(=O)Nc2ccc(C(=O)O)c(C)c2)cc1OCC1CC1` [Compound 59], the γ/α ratio is recorded as 38,461.

In the case of `CC(C)(C)Oc1cc(C(=O)Nc2ccc(C(=O)O)cc2)cc(Cl)c1OC(C)(C)C` [Compound 41, 4-(3,4-Di-tert-butoxy-5-chlorobenzamido)benzoic acid], the γ/α ratio turned out to be 189.

On to `CCOc1cc(C(=O)Nc2ccc(C(=O)O)cc2)cc(Cl)c1OC(C)C` [Compound 52], for which the γ/α ratio is given as 570.

`CCOc1c(Cl)cc(NC(=O)c2ccc(C(=O)O)cc2)cc1Cl` [Compound 26, 4-(3,5-Dichloro-4-ethoxyphenylcarbamoyl)benzoic acid]: the γ/α ratio was more than 3600.

`COc1c(Cl)cc(C(=O)Nc2ccc(C(=O)O)cc2)cc1Cl` [Compound 61]: the γ/α ratio is given as 195.

Take `CC(C)Oc1c(Cl)cc(C(=O)Nc2ccc(C(=O)O)cc2)cc1Cl` [Compound 14]: the γ/α ratio is given as 119.

`O=C(O)c1ccc(NC(=O)c2cc(Cl)c(OC3CCC3)c(OC3CCC3)c2)cc1` [Compound 40]: the γ/α ratio is on record as 447.

Take `CCOc1c(Cl)cc(C(=O)Nc2ccc(C(=O)O)c(F)c2)cc1Cl` [Compound 17]: the γ/α ratio is more than 80.

As for `CCOc1c(Cl)cc(C(=O)Nc2ccc(C(=O)O)c(Cl)c2)cc1Cl` [Compound 20], the γ/α ratio is on record as more than 50.

For the compound `Cc1cc(NC(=O)c2cc(Cl)c(OC(C)(C)C)c(OC(C)(C)C)c2)ccc1C(=O)O` [Compound 45], the γ/α ratio turned out to be 128.

Consider `CCCCOc1c(Cl)cc(C(=O)Nc2ccc(C(=O)O)cc2)cc1Cl` [Compound 13], for which the γ/α ratio is 18.

As for `CCOc1cc(C(=O)Nc2ccc(C(=O)O)cc2)cc(OCC)c1OCC` [Compound 62], the γ/α ratio was found to be 16.

(Values after PMC5823845 (Bioorganic & Medicinal Chemistry, 2018).)
